Ends that are not written are not given here.
How the values were obtained:
[1] = molecular target: T1, P. aeruginosa elastase (Pseudomonas aeruginosa, UniProt P14756); type: in vitro ADME; conditions: 37°C, in words; for stability against P. aeruginosa elastase: 1 µg peptide, 0.1 µg enzyme, 30 µl, 3 hours (legend: 4 h), SDS-PAGE Coomassie; for stability against P. aeruginosa elastase, extended digestion: different times up to 18 h, SDS-PAGE
T1 construct: purchased Calbiochem (La Jolla, USA)
Experimental: […] The materials were analyzed on 16.5% precast sodium dodecyl sulfate polyacrylamide (SDS-PAGE) Tris-Tricine gels (BioRad, Hercules, USA) and analyzed after staining with Coomassie Blue R-250 (Merck, Darmstadt, Germany).

[2] = tested on: human erythrocytes in 50% citrate blood with S. aureus or P. aeruginosa; conditions: peptide 120 µM (highest dose), 1 hour 37°C, in words
Experimental: For analysis of peptide-induced permeabilization of human erythroytes, EDTA-, or citrate-blood was drawn from healthy volunteers, [51], centrifuged at 800 g for 10 min, and plasma and buffy coat were removed. For experiments using EDTA-blood, [51] erythrocytes were washed three times and resuspended to 5% in PBS, pH 7.4. For experiments in 50% blood, citrate-blood was diluted (1∶1) with PBS. The cells were then incubated with end-over-end rotation for 1 h at 37°C in the presence of peptides (60 µM). 2% Triton X-100 (Sigma-Aldrich, St. Louis, USA) served as positive control. The samples were then centrifuged at 800 g for 10 min. The absorbance of hemoglobin release was measured at 540 nm and is expressed as % of TritonX-100 induced hemolysis. In the experiments with blood infected by bacteria, citrate-blood was diluted (1∶1) with PBS. The cells were then incubated with end-over-end rotation for 1 h at 37°C in the presence of peptides (60 and 120 µM) and S. aureus (2×10^8 cfu/ml) or P. aeruginosa (2×10^8 cfu/ml) bacteria. For evaluation of hemolysis, samples were then processed as above. Results given represent mean values from triplicate measurements.

[3] = tested on: Escherichia coli - ESBL - SHV; type: cell-based
Experimental: (§1) In order to determine the minimal inhibitory concentration (MIC) for a given peptide and bacteria, we used a standardized dilution method according to NCSLA guidelines. In brief, fresh overnight colonies were suspended to a turbidity of 0.5 units and further diluted in Mueller-Hinton broth (MH) (Becton Dickinson). For determination of MIC, peptides were dissolved in water at concentration 10 times higher than the required range by serial dilutions from a stock solution. Ten µl of each concentration was added to each corresponding well of a 96-well microtiter plate (polypropylene, Costar Corp.) and 90 µl of bacteria (1×10^5) in MH medium added. The plate was incubated at 37°C for 16–18 h. MIC was considered as the lowest concentration of peptide where no visual growth of bacteria was detected. Additional MIC determinations presented in Table 2 were performed using cation-adjusted MH broth at Quotient Bioresearch Ltd., Fordham, United Kingdom.

[4] = tested on: Pseudomonas aeruginosa – Liverpool genotype LES 431; type: cell-based
Experimental: as §1

[5] = tested on: Staphylococcus aureus - multi-drug-resistant clinical isolate; type: cell-based
Experimental: as §1

[6] = tested on: Streptococcus pyogenes – Macrolide (M-type) resistance clinical isolate; type: cell-based
Experimental: as §1

[7] = tested on: Escherichia coli ATCC 25922 - antibiotic-susceptible type strain; type: cell-based
Experimental: as §1

[8] = tested on: Pseudomonas aeruginosa - multi-drug resistant clinical isolate; type: cell-based
Experimental: as §1

[9] = tested on: Staphylococcus aureus ATCC 29213 – antibiotic-susceptible type strain; type: cell-based
Experimental: as §1

[10] = tested on: Group G Streptococcus – antibiotic-susceptible clinical isolate; type: cell-based
Experimental: as §1

[11] = tested on: EMRSA16 Staphylococcus aureus (MRSA) – SSCmec type 2; type: cell-based; conditions: EMRSA16 – SSCmec type 2
Experimental: as §1

[12] = tested on: Group C Streptococcus – antibiotic-susceptible clinical isolate; type: cell-based
Experimental: as §1

[13] = tested on: Staphylococcus epidermidis– methicillin-resistant clinical isolate; type: cell-based
Experimental: as §1

[14] = tested on: Staphylococcus aureus ATCC 43300 – methicillin-resistant type strain; type: cell-based
Experimental: as §1

[15] = tested on: Escherichia coli ATCC 35218 - β-lactamase positive type strain; type: cell-based
Experimental: as §1

[16] = tested on: Group G Streptococcus – macrolide-resistant clinical isolate; type: cell-based
Experimental: as §1

[17] = tested on: Streptococcus pyogenes – ATCC 19615; type: cell-based
Experimental: as §1

[18] = tested on: Pseudomonas aeruginosa ATCC 27853 - antibiotic-susceptible type strain; type: cell-based
Experimental: as §1

[19] = tested on: EMRSA3 Staphylococcus aureus (MRSA) – SSCmec type 1; type: cell-based; conditions: EMRSA3 – SSCmec type 1
Experimental: as §1

[20] = tested on: Group C Streptococcus – macrolide-resistant clinical isolate; type: cell-based
Experimental: as §1

[21] = tested on: Staphylococcus aureus – methicillin-resistant clinical isolate; type: cell-based
Experimental: as §1

[22] = tested on: Streptococcus pyogenes – Macrolide (MLS) resistant clinical isolate; type: cell-based
Experimental: as §1

[23] = tested on: Staphylococcus saprophyticus – antibiotic susceptible clinical isolate; type: cell-based
Experimental: as §1

[24] = tested on: Staphylococcus aureus - teicoplanin-intermediate clinical isolate; type: cell-based
Experimental: as §1

[25] = tested on: Streptococcus pyogenes – antibiotic-susceptible clinical isolate; type: cell-based
Experimental: as §1

[26] = tested on: EMRSA15 Staphylococcus aureus (MRSA) – SSCmec type 4; type: cell-based; conditions: EMRSA15 – SSCmec type 4
Experimental: as §1

[27] = tested on: Escherichia coli - ESBL - CTXM; type: cell-based
Experimental: as §1

[28] = tested on: Escherichia coli - ESBL - TEM; type: cell-based
Experimental: as §1

[29] = tested on: HT2001254 Staphylococcus aureus (MRSA) – PVL positive; type: cell-based
Experimental: as §1

[30] = tested on: Staphylococcus haemolyticus – antibiotic susceptible clinical isolate; type: cell-based
Experimental: as §1

[31] = tested on: EMRSA1 Staphylococcus aureus (MRSA) – SSCmec type 3; type: cell-based; conditions: EMRSA1 – SSCmec type 3
Experimental: as §1

[32] = tested on: Staphylococcus epidermidis – antibiotic susceptible clinical isolate; type: cell-based
Experimental: as §1

[33] = tested on: MU50 Staphylococcus aureus (MRSA) – VISA type strain; type: cell-based
Experimental: as §1

[34] = tested on: Escherichia coli - multi-drug resistant clinical isolate; type: cell-based
Experimental: as §1

[35] = molecular target: T2, S. aureus V8 proteinase (Staphylococcus aureus, UniProt P0C1U8); test: Protease sensitivity assay (SDS-PAGE); type: in vitro ADME; conditions: 1 µg peptide, 0.1 µg enzyme, 30 µl, 37°C, 3 hours (legend: 4 h), SDS-PAGE Coomassie; in words
T2 construct: purchased BioCol GmbH (Potsdam, Germany)
T2 sequence (P0C1U8 69-336): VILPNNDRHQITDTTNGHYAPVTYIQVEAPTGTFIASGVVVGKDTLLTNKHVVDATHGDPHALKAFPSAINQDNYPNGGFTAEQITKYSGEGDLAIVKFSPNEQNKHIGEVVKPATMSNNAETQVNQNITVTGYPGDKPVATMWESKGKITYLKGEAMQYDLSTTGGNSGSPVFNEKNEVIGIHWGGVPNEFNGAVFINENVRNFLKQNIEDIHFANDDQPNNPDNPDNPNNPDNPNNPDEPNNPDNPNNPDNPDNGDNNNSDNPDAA
Experimental: (§2) For evaluation of sensitivity to bacterial and endogenous proteases, peptides (1 µg) were incubated at 37°C with S. aureus aureolysin (0.1 µg, 25000 units/mg), S. aureus V8 proteinase (0.1 µg, 2000 mU), both from BioCol GmbH (Potsdam, Germany), human neutrophil elastase (0.4 µg, 29 units/mg; Calbiochem (La Jolla, USA)) or P. aeruginosa elastase (0.1 µg, 261 units/mg) (Calbiochem, La Jolla, USA) in a total volume of 30 µl for 3 hours. The materials were analyzed on 16.5% precast sodium dodecyl sulfate polyacrylamide (SDS-PAGE) Tris-Tricine gels (BioRad, Hercules, USA) and analyzed after staining with Coomassie Blue R-250 (Merck, Darmstadt, Germany).

[36] = molecular target: T3, S. aureus aureolysin (Staphylococcus aureus, UniProt P81177); test: Protease sensitivity assay (SDS-PAGE); type: in vitro ADME; conditions: 1 µg peptide, 0.1 µg enzyme, 30 µl, 37°C, 3 hours (legend: 4 h), SDS-PAGE Coomassie; in words
T3 construct: purchased BioCol GmbH (Potsdam, Germany)
T3 sequence (P81177 209-509): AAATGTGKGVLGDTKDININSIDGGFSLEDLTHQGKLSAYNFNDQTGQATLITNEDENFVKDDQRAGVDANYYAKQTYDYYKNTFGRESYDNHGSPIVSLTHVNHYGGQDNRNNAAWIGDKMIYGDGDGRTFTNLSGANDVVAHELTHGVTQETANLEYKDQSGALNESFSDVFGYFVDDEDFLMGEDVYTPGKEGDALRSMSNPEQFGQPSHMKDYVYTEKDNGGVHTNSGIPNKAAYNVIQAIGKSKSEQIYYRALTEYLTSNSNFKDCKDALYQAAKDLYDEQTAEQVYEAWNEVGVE
Experimental: as §2

[37] = molecular target: T4, human neutrophil elastase (Homo sapiens, UniProt P08246); test: Protease sensitivity assay (SDS-PAGE); type: in vitro ADME; conditions: 1 µg peptide, 0.4 µg enzyme, 30 µl, 37°C, 3 hours (legend: 4 h), SDS-PAGE Coomassie; in words
T4 construct: purchased Calbiochem (La Jolla, USA)
T4 sequence (P08246 30-267): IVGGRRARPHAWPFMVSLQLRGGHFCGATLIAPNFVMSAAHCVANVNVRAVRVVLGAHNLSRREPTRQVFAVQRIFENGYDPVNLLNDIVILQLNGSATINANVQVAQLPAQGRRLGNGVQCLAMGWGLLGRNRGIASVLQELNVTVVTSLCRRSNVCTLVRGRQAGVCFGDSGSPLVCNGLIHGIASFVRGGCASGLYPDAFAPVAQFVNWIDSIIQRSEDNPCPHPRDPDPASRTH
Experimental: as §2

[38] = tested on: S. aureus; conditions: in words; cited from earlier work
From the text: (§3) Considering the increasing resistance problems against conventional antibiotics, AMPs have recently emerged as potential therapeutic candidates in the above conditions. For example, the indolicidin-derived peptide omiganan is currently being evaluated in Phase III clinical trials for treatment of catheter-related infections. However, the use of AMPs in this context is challenging, as bacteria are able to excrete proteolytic enzymes, [38], and in the case of P. aeruginosa also AMP-scavenging exopolysaccharides, as a defense against AMPs.

[39] = tested on: erythrocytes; conditions: cited from earlier work
From the text: as §3

[40] = tested on: P. aeruginosa; conditions: in words; cited from earlier work
From the text: as §3

T1 sequence (P14756 198-498): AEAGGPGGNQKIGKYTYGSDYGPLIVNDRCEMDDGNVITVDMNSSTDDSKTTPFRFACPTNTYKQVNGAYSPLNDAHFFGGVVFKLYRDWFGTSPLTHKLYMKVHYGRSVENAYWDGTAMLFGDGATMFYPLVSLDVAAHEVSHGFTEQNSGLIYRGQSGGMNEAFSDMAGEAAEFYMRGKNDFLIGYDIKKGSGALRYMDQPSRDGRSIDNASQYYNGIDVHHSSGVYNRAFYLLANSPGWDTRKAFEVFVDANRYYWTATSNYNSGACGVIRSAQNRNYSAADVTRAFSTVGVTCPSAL

Compound: RRPRPRPRPWWWW-NH2 [RRPRPRPRPWWWW-NH2]
- stability against P. aeruginosa elastase [1]: largely unaffected
- stability against P. aeruginosa elastase, extended digestion [1]: maintained stability
- hemolysis in human blood infected by bacteria [2]: no accompanying hemolysis
- MIC [3]: 32 mg/L
- MIC [4]: 128 mg/L
- MIC [5]: 32 mg/L
- MIC [6]: 16 mg/L
- MIC [7]: 16 mg/L
- MIC [8]: 128 mg/L
- MIC [9]: 16 mg/L
- MIC [10]: 32 mg/L
- MIC [11]: 32 mg/L
- MIC [12]: 8 mg/L
- MIC [13]: 8 mg/L
- MIC [14]: 16 mg/L
- MIC [15]: 16 mg/L
- MIC [16]: 16 mg/L
- MIC [17]: 16 mg/L
- MIC [18]: 64 mg/L
- MIC [19]: 16 mg/L
- MIC [20]: 8 mg/L
- MIC [21]: 32 mg/L
- MIC [22]: 16 mg/L
- MIC [23]: 64 mg/L
- MIC [24]: 32 mg/L
- MIC [25]: 32 mg/L
- MIC [26]: 16 mg/L
- MIC [27]: 16 mg/L
- MIC [28]: 16 mg/L
- MIC [29]: 32 mg/L
- MIC [30]: 8 mg/L
- MIC [31]: 32 mg/L
- MIC [32]: 8 mg/L
- MIC [33]: 32 mg/L
- MIC [34]: 16 mg/L
- stability against S. aureus V8 proteinase [35]: largely unaffected
- stability against S. aureus aureolysin [36]: largely unaffected

Compound: CC[C@H](C)[C@H](NC(=O)[C@H](CCCCN)NC(=O)[C@H](CCC(=O)O)NC(=O)[C@H](CCCCN)NC(=O)[C@H](CO)NC(=O)[C@H](CCCCN)NC(=O)[C@H](CCCNC(=N)N)NC(=O)[C@H](Cc1ccccc1)NC(=O)[C@H](Cc1ccccc1)NC(=O)[C@H](CC(=O)O)NC(=O)CNC(=O)[C@H](CC(C)C)NC(=O)[C@@H](N)CC(C)C)C(=O)NCC(=O)N[C@@H](CCCCN)C(=O)N[C@@H](CCC(=O)O)C(=O)N[C@@H](Cc1ccccc1)C(=O)N[C@@H](CCCCN)C(=O)N[C@@H](CCCNC(=N)N)C(=O)N[C@H](C(=O)N[C@H](C(=O)N[C@@H](CCC(N)=O)C(=O)N[C@@H](CCCNC(=N)N)C(=O)N[C@H](C(=O)N[C@@H](CCCCN)C(=O)N[C@@H](CC(=O)O)C(=O)N[C@@H](Cc1ccccc1)C(=O)N[C@@H](CC(C)C)C(=O)N[C@@H](CCCNC(=N)N)C(=O)N[C@@H](CC(N)=O)C(=O)N[C@@H](CC(C)C)C(=O)N[C@H](C(=O)N1CCC[C@H]1C(=O)N[C@@H](CCCNC(=N)N)C(=O)N[C@H](C(=O)N[C@@H](CCC(=O)O)C(=O)N[C@@H](CO)C(=O)O)[C@@H](C)O)C(C)C)[C@@H](C)CC)C(C)C)[C@@H](C)CC [reference compound]
- stability against P. aeruginosa elastase [1]: extensively degraded
- hemolysis in human blood infected by bacteria [2]: significant concomitant hemolysis
- stability against S. aureus V8 proteinase [35]: extensively degraded
- stability against S. aureus aureolysin [36]: extensively degraded
- stability against human neutrophil elastase [37]: extensively degraded

Compound: QPTRRPRPGTGPGRRPRPRPRP [QPT22, PRELP-derived peptide of earlier work]
- antimicrobial effects [38]: exert antimicrobial effects
- hemolytic activity [39]: no hemolytic activity
- antimicrobial effects [40]: exert antimicrobial effects

Compound: GRRPRPRPRPWWWW-NH2 [GRRPRPRPRPWWWW-NH2]
- stability against P. aeruginosa elastase [1]: largely unaffected
- stability against S. aureus V8 proteinase [35]: largely unaffected
- stability against S. aureus aureolysin [36]: largely unaffected

Compound: ILRWPWWPWRRK-NH2 [ILRWPWWPWRRK-NH2, reference compound]
- stability against P. aeruginosa elastase, extended digestion [1]: degraded during extended digestion

Reference: paper PMC3029338, “Highly Selective End-Tagged Antimicrobial Peptides Derived from PRELP” (PLoS ONE, 2011)
